Assay results from PubChem BioAssay AID2060513 (Molecular Pharmacology Branch, DTP, NCI, 2025).

Tested on: 299254-011-R-J1-PDC complex spheroids viability
Assay: Anticancer human tumor 299254-011-R-J1-PDC patient-derived melanoma cell line growth inhibition [GQUAD]
Conditions: for IC50: curve of first compound; for viability, T/C: stronger effect = lower value
Outline: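 Tumor cells were grown as complex spheroids with HUVEC endothelial cells and mesenchymal stem cells as stroma. G-quadruplex stabilizers were combined with targeted agents over half-log dilutions from near the clinical Cmax, or from 10 microM.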

[1] = second compound 0.0316 µM, first compound 0.0316 µM
[2] = second compound 0.0316 µM, first compound 0.1 µM
[3] = second compound 0.0316 µM, first compound 0.316 µM
[4] = second compound 0.0316 µM, first compound 1 µM
[5] = second compound 0.0316 µM, first compound 3.16 µM
[6] = second compound 0.0316 µM, first compound 10 µM
[7] = second compound 0.1 µM, first compound 0.0316 µM
[8] = second compound 0.1 µM, first compound 0.1 µM
[9] = second compound 0.1 µM, first compound 0.316 µM
[10] = second compound 0.1 µM, first compound 1 µM
[11] = second compound 0.1 µM, first compound 3.16 µM
[12] = second compound 0.1 µM, first compound 10 µM
[13] = second compound 0.316 µM, first compound 0.0316 µM
[14] = second compound 0.316 µM, first compound 0.1 µM
[15] = second compound 0.316 µM, first compound 0.316 µM
[16] = second compound 0.316 µM, first compound 1 µM
[17] = second compound 0.316 µM, first compound 3.16 µM
[18] = second compound 0.316 µM, first compound 10 µM
[19] = second compound 1 µM, first compound 0.0316 µM
[20] = second compound 1 µM, first compound 0.1 µM
[21] = second compound 1 µM, first compound 0.316 µM
[22] = second compound 1 µM, first compound 1 µM
[23] = second compound 1 µM, first compound 3.16 µM
[24] = second compound 1 µM, first compound 10 µM
[25] = second compound 3.16 µM, first compound 0.0316 µM
[26] = second compound 3.16 µM, first compound 0.1 µM
[27] = second compound 3.16 µM, first compound 0.316 µM
[28] = second compound 3.16 µM, first compound 1 µM
[29] = second compound 3.16 µM, first compound 3.16 µM
[30] = second compound 3.16 µM, first compound 10 µM
[31] = second compound 10 µM, first compound 0.0316 µM
[32] = second compound 10 µM, first compound 0.1 µM
[33] = second compound 10 µM, first compound 0.316 µM
[34] = second compound 10 µM, first compound 1 µM
[35] = second compound 10 µM, first compound 3.16 µM
[36] = second compound 10 µM, first compound 10 µM
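Note: spheroids exposed to the agents for seven days before readout.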
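Throughout, for viability, T/C: percent viability relative to DMSO vehicle control wells = 100%.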

C=CCn1c(=O)c2cnc(Nc3ccc(N4CCN(C)CC4)cc3)nc2n1-c1cccc(C(C)(C)O)n1 + Cc1[nH]c2ccc(F)cc2c1-c1nc2c3cccnc3c3ncccc3c2[nH]1
IC50 (second compound 0.0316 µM): 1.96 µM | IC50 (second compound 0.1 µM): 1.46 µM | IC50 (second compound 0.316 µM): 2.12 µM | IC50 (second compound 1 µM): 2.07 µM | IC50 (second compound 3.16 µM): 1.56 µM | IC50 (second compound 10 µM): 0.929 µM | viability, T/C [1]: 95.6% | viability, T/C [2]: 101% | viability, T/C [3]: 101% | viability, T/C [4]: 69.8% | viability, T/C [5]: 37.3% | viability, T/C [6]: 29.8% | viability, T/C [7]: 117% | viability, T/C [8]: 112% | viability, T/C [9]: 115% | viability, T/C [10]: 59.2% | viability, T/C [11]: 33.2% | viability, T/C [12]: 29.2% | viability, T/C [13]: 108% | viability, T/C [14]: 108% | viability, T/C [15]: 94% | viability, T/C [16]: 70.4% | viability, T/C [17]: 39.1% | viability, T/C [18]: 25% | viability, T/C [19]: 109% | viability, T/C [20]: 92.7% | viability, T/C [21]: 92.9% | viability, T/C [22]: 66.2% | viability, T/C [23]: 39.4% | viability, T/C [24]: 23.6% | viability, T/C [25]: 86.1% | viability, T/C [26]: 91% | viability, T/C [27]: 102% | viability, T/C [28]: 62.3% | viability, T/C [29]: 33% | viability, T/C [30]: 27.8% | viability, T/C [31]: 94.4% | viability, T/C [32]: 81.9% | viability, T/C [33]: 85.9% | viability, T/C [34]: 46.9% | viability, T/C [35]: 26.4% | viability, T/C [36]: 19.4%

COc1cc(C2c3cc4c(cc3C(OC3OC5COC(C)OC5C(O)C3O)C3COC(=O)C23)OCO4)cc(OC)c1O (stereo unspecified) + Cc1[nH]c2ccc(F)cc2c1-c1nc2c3cccnc3c3ncccc3c2[nH]1
IC50 (second compound 0.0316 µM): > 10 µM | IC50 (second compound 0.1 µM): > 10 µM | IC50 (second compound 0.316 µM): > 10 µM | IC50 (second compound 1 µM): > 10 µM | IC50 (second compound 3.16 µM): > 10 µM | IC50 (second compound 10 µM): > 10 µM | viability, T/C [1]: 81.2% | viability, T/C [2]: 79.1% | viability, T/C [3]: 108% | viability, T/C [4]: 85% | viability, T/C [5]: 94.5% | viability, T/C [6]: 76.5% | viability, T/C [7]: 100% | viability, T/C [8]: 97.5% | viability, T/C [9]: 81.2% | viability, T/C [10]: 76.5% | viability, T/C [11]: 99.2% | viability, T/C [12]: 80.1% | viability, T/C [13]: 100% | viability, T/C [14]: 77.3% | viability, T/C [15]: 82.5% | viability, T/C [16]: 86.9% | viability, T/C [17]: 84.3% | viability, T/C [18]: 70.5% | viability, T/C [19]: 101% | viability, T/C [20]: 86% | viability, T/C [21]: 106% | viability, T/C [22]: 87.1% | viability, T/C [23]: 96.7% | viability, T/C [24]: 72.2% | viability, T/C [25]: 99.9% | viability, T/C [26]: 84.9% | viability, T/C [27]: 89.5% | viability, T/C [28]: 89.4% | viability, T/C [29]: 89.5% | viability, T/C [30]: 95% | viability, T/C [31]: 89.7% | viability, T/C [32]: 83% | viability, T/C [33]: 95.3% | viability, T/C [34]: 86.1% | viability, T/C [35]: 96.2% | viability, T/C [36]: 56.5%

Cc1[nH]c2ccccc2c1CCNCc1ccc(/C=C/C(=O)NO)cc1 + Cc1[nH]c2ccc(F)cc2c1-c1nc2c3cccnc3c3ncccc3c2[nH]1
IC50 (second compound 0.0316 µM): 0.123 µM | IC50 (second compound 0.1 µM): 0.128 µM | IC50 (second compound 0.316 µM): 0.198 µM | IC50 (second compound 1 µM): 0.187 µM | IC50 (second compound 3.16 µM): 0.181 µM | IC50 (second compound 10 µM): 0.163 µM | viability, T/C (second compound 0.0316 µM, first compound 0.000999 µM): 95.9% | viability, T/C (second compound 0.0316 µM, first compound 0.00316 µM): 81.8% | viability, T/C (second compound 0.0316 µM, first compound 0.00999 µM): 92.5% | viability, T/C [1]: 81.3% | viability, T/C (second compound 0.0316 µM, first compound 0.0999 µM): 56.3% | viability, T/C [3]: 21.5% | viability, T/C (second compound 0.1 µM, first compound 0.000999 µM): 95.3% | viability, T/C (second compound 0.1 µM, first compound 0.00316 µM): 119% | viability, T/C (second compound 0.1 µM, first compound 0.00999 µM): 81.8% | viability, T/C [7]: 71.1% | viability, T/C (second compound 0.1 µM, first compound 0.0999 µM): 64.5% | viability, T/C [9]: 22% | viability, T/C (second compound 0.316 µM, first compound 0.000999 µM): 88.1% | viability, T/C (second compound 0.316 µM, first compound 0.00316 µM): 99.4% | viability, T/C (second compound 0.316 µM, first compound 0.00999 µM): 95.8% | viability, T/C [13]: 77.6% | viability, T/C (second compound 0.316 µM, first compound 0.0999 µM): 86.3% | viability, T/C [15]: 25.5% | viability, T/C (second compound 1 µM, first compound 0.000999 µM): 96.1% | viability, T/C (second compound 1 µM, first compound 0.00316 µM): 87.4% | viability, T/C (second compound 1 µM, first compound 0.00999 µM): 93.7% | viability, T/C [19]: 89% | viability, T/C (second compound 1 µM, first compound 0.0999 µM): 81.8% | viability, T/C [21]: 23.6% | viability, T/C (second compound 3.16 µM, first compound 0.000999 µM): 93.8% | viability, T/C (second compound 3.16 µM, first compound 0.00316 µM): 79.2% | viability, T/C (second compound 3.16 µM, first compound 0.00999 µM): 86.6% | viability, T/C [25]: 85.8% | viability, T/C (second compound 3.16 µM, first compound 0.0999 µM): 74.8% | viability, T/C [27]: 26.7% | viability, T/C (second compound 10 µM, first compound 0.000999 µM): 78.2% | viability, T/C (second compound 10 µM, first compound 0.00316 µM): 105% | viability, T/C (second compound 10 µM, first compound 0.00999 µM): 94.6% | viability, T/C [31]: 84.1% | viability, T/C (second compound 10 µM, first compound 0.0999 µM): 74.8% | viability, T/C [33]: 17.9%
